Consider 11 molecules from patent publication US8394971B2, “Indole derivatives as selective androgen receptor modulators (SARMS)” (Janssen Pharmaceutica N.V., priority 2004, dated 2013).

The target in assay [1] is T1, androgen receptor LBD (Panvera) (Rattus norvegicus, UniProt P15207).
T1 construct: 5 pmol androgen receptor LBD (Panvera); purchased Panvera
T1 sequence (P15207 651-882 limits assumed): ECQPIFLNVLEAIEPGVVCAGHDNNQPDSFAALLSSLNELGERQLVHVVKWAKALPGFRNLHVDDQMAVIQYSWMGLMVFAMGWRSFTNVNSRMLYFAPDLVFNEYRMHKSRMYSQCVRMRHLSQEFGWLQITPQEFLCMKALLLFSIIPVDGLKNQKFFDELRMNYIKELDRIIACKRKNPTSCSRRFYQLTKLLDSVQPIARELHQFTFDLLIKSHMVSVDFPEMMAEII
In words: Androgen Receptor Filtration Binding Assay (PANVERA). The conditions noted are these: Androgen Receptor Binding (Panvera); 0.5 nM [3H] R1881 tracer. The method, then: (§1) The assay was run on a 96 well plate with each well filled with a total reaction volume 150 μL, of a solution containing 5 pmol androgen receptor LBD (Panvera) or 30 μL of freshly prepared rat cytosol, 0.5 nM [^3H] […] (TED buffer contains 10 mM Tris.HCl pH 7.4, 1 mM sodium molybdate, 1.5 mM EDTA, 1 mM DTT and 10% (v/v) glycerol.)
(§2) On day one, the solution containing receptor, tracer and TED buffer was distributed into a 96 well plate. Diluted test compound or control vehicle was then added to individual wells and the plate incubated at 4° C. overnight.
(§3) On day two, to each well was then added 20 μL human γ-globulin (ICN 823102), prepared at 25 mg/ml in TE pH 8.0, and 55 μL 40% polyethylene glycol 8000 (JT Baker U222-08), prepared in TE pH 8.0. The plate was incubated at 4° C. for 60 minutes. During incubation, the harvester was rinsed with 10% PEG 8000, prepared in TE pH 8.0, and a GF/C Unifilter-96 was pre-wet with 10% PEG. The binding reaction was filtered, the retentate was washed three times with 10% PEG and dried under vacuum for a couple of minutes, then dried at 50° C. for 5 min and the plate was bottom sealed. Next, 25 μL of Microscint-20 (Packard) was added to the filter wells and the plate was top sealed. The plate wells were then counted on a TopCount (Packard).
Counts per well were measured and IC50s determined by linear regression.

Assay [2] concerns the target T2, androgen receptor (rat ventral prostate cytosol) (Rattus norvegicus, UniProt P15207).
T2 construct: from tissue; host or cells: ventral prostate of castrated male Sprague Dawley or Wistar rats, cytosol
T2 sequence (P15207 1-902): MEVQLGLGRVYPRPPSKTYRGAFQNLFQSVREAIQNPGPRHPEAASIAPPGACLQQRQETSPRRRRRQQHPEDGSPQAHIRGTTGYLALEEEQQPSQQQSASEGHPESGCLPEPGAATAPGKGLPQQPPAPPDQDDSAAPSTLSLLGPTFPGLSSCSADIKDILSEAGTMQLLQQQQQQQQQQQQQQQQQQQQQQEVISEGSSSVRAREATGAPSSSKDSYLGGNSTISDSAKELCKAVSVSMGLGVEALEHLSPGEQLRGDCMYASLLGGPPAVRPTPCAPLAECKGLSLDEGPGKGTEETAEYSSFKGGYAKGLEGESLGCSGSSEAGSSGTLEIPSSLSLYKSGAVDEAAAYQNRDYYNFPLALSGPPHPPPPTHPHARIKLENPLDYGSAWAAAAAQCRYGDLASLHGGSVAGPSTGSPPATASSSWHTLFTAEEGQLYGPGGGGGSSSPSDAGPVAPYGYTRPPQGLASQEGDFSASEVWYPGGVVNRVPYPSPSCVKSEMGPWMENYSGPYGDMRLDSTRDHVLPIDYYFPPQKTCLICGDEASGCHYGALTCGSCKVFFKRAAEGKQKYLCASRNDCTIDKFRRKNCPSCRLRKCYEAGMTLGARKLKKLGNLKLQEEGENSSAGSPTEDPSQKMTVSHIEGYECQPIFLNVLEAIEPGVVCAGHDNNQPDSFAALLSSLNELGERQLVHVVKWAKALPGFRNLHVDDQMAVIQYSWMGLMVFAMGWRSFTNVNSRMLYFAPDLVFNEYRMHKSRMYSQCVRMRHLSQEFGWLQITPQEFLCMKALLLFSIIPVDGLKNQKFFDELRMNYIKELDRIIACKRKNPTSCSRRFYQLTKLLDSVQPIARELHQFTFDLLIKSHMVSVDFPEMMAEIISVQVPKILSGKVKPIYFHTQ
In words: Androgen Receptor Binding Using Rat Ventral Prostate Cytosol. The conditions noted are these: for IC50: read-out: IC50. The method, then:
as §1, §2, §3
Rat Prostate Cytosol Preparation:
Male Sprague Dawley or Wistar rats (Charles River, 200-300 g) were used for each preparation. The day before preparing the cytosol, the rats were castrated using standard surgical procedures.
The rats were euthanized by carbon dioxide asphyxiation. The rat prostates were quickly removed and placed on ice in pre-chilled, pre-weighed 50 mL plastic tubes. No more than five prostates were placed into one tube. The tubes were then weighed and the prostate tissue wet weights calculated.
To the chilled prostate tissue was then added […] of chilled homogenization buffer. The homogenization buffer was freshly prepared by mixing 10 mM Tris.HCl, pH 7.4, 1 mM sodium molybdate, 1.5 mM EDTA, 1 mM dithiothreitol, 10% (v/v) glycerol and 1% protease inhibitor cocktail (Sigma P 8340).
The prostate tissue was homogenized in a cold room using a pre-chilled Polytron PT3000 homogenizer (Brinkmann). Homogenization was performed at a speed setting of 20, three times for 10 sec bursts. The tubes containing the prostate tissue was kept on ice while homogenizing. The homogenate was allowed to rest on ice for 20 sec between bursts.
The homogenate was then placed into pre-chilled 3 mL polycarbonate ultracentrifuge tubes and centrifuged in the TLA-100 rotor of a TL-100 ultracentrifuge for 12 min at 100,000 rpm at 4° C. The resulting supernatant was stored in 1 mL aliquots at −80° C. until needed.
Binding to the androgen receptor was determined according to the protocol described in Example 86 using the above prepared rat cytosol.
% Inhibition was determined by testing dilutions of the test compound (usually duplicates of 10 μM) in the binding assay. Counts per well were measured and percents of inhibition determined. […] Counts per well were measured and IC50s determined by linear regression.

The mark [3] stands for this setting: rat cytosol, concentration 1000 nM.

“And” between values parts separate entries of the source, which are not always exact repeats. Equal values may be shown once.

Broadly, the IC50 is the point on the concentration scale where inhibition reaches its midpoint. One may read the % Inhibition as the drop in the measured response relative to a control, in per cent. Consider `CC(O)(Sc1ccc(Cl)cc1)c1cc2cc(C#N)c(C(F)(F)F)cc2[nH]1` (racemic) [compound 261], for which the IC50 in assay [1] turned out to be 1460 nM. Besides, the “% Inhibition” value in assay [2] (setting [3]) amounted to 14.05%.
In assay [1], `CC(O)(CSC1CCCCC1)c1cc2nc(C(F)(F)F)ccc2[nH]1` (racemic) [Compound #1] gave a half-maximal inhibitory concentration (IC50) of 14000 nM. Further, in assay [2] (1 µM), the “% Inhibition” value came out at 22%.
Molecule `CC(O)(Sc1ccccc1)c1cc2cc([N+](=O)[O-])c(C(F)(F)F)cc2[nH]1` (racemic) [compound 258] registered an IC50 in assay [1] of 2450 nM. Further, the “% Inhibition” value in assay [2] (setting [3]) is 35.4%.
For orientation: inhibition means the drop in the measured response relative to a control, in per cent. As for `CS(=O)(=O)n1c(C2(O)CCN(C(=O)OCc3ccccc3)CC2)cc2cc(Cl)c(C(F)(F)F)cc21` [compound 19], in assay [1], the half-maximal inhibitory concentration (IC50) is > 100000 nM. The inhibition at 1 µM in assay [2] (setting [3]) is -55%.
On the same counts, the results for `CC(O)(COC(=O)c1ccc(Cl)cc1)c1cc2cc(Cl)c(C(F)(F)F)cc2[nH]1` (centres unmarked) [compound 62] are 325 nM and 69%.
With `CC(O)(Sc1ccc(Cl)c(Cl)c1)c1cc2cc([N+](=O)[O-])c(C(F)(F)F)cc2[nH]1` (racemic) [compound 254], the IC50 is 1020 nM and 920 nM in assay [1]; 670 nM in assay [2] (rat cytosol). In addition, in assay [2] (setting [3]), the “% Inhibition” value was determined as 41%.
`CC(O)(Sc1ccc(Cl)cc1)c1cc2cc([N+](=O)[O-])c(C(F)(F)F)cc2[nH]1` (racemic) [compound 259]: in assay [1], the IC50 is 915 nM.
Regarding `CC(O)(c1cc2cc(C#N)c(C(F)(F)F)cc2[nH]1)S(=O)(=O)c1ccc(Cl)cc1` (racemic) [compound 262], the IC50 in assay [1] was > 10000 nM. Besides, the “% Inhibition” value in assay [2] (setting [3]) is on record as −8.4%.
As to `CS(=O)(=O)n1c(C2(O)CCNCC2)cc2cc(Cl)c(C(F)(F)F)cc21` [Compound #23], the half-inhibitory concentration (IC50) is 54000 nM in assay [1] and 6000 nM in assay [2] (rat cytosol). Also, the inhibition at 1 µM in assay [2] (setting [3]) is -1.5%.
In turn, `O=C(c1ccc(Cl)cc1)N1CCC(O)(c2cc3cc(Cl)c(C(F)(F)F)cc3[nH]2)CC1` [Compound #25] displayed an IC50 in assay [1] of 8800 nM. Moreover, the inhibition at 1 µM in assay [2] (setting [3]) is -83.5%.
On the same counts, the results for `CS(=O)(=O)n1c(C2(O)CCN(Cc3ccccc3)CC2)cc2cc(Cl)c(C(F)(F)F)cc21` [Compound #21] are > 10200 nM and -41.5%.
